Reference: PubChem BioAssay (NCI)
Several values for one entry are separate records, joined by “and”; a condition that tells them apart may be missing. Equal values may be shown once.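 Exposure lasted 48 hours, with cells grown in 96-well plates and compounds tested at five concentrations. Abbreviation: GI50, concentration required for 50% inhibition of growth. TGI denotes the concentration required for complete inhibition of growth.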

Tests used:
Assay in all cases: NCI-60 cell line screen, 48 h
[1] = tested on: NCI/ADR-RES ovarian
[2] = tested on: COLO 205 colon
[3] = tested on: SNB-19 CNS
[4] = tested on: SR leukemia
[5] = tested on: LOX IMVI melanoma
[6] = tested on: MCF7 breast
[7] = tested on: MOLT-4 leukemia
[8] = tested on: SN12C renal
[9] = tested on: TK-10 renal
[10] = tested on: SW-620 colon
[11] = tested on: NCI-H226 lung
[12] = tested on: HOP-62 NSCLC
[13] = tested on: BT-549 breast
[14] = tested on: UACC-257 melanoma
[15] = tested on: PC-3 prostate
[16] = tested on: HL-60(TB) leukemia
[17] = tested on: OVCAR-8 ovarian
[18] = tested on: SF-268 CNS
[19] = tested on: MDA-MB-231 breast
[20] = tested on: 786-0 renal
[21] = tested on: U251 CNS
[22] = tested on: IGROV1 ovarian
[23] = tested on: MALME-3M melanoma
[24] = tested on: SK-OV-3 ovarian
[25] = tested on: T-47D breast
[26] = tested on: ACHN renal
[27] = tested on: HT29 colon
[28] = tested on: OVCAR-4 ovarian
[29] = tested on: HOP-92 NSCLC
[30] = tested on: M14 melanoma
[31] = tested on: HCC-2998 colon
[32] = tested on: UACC-62 melanoma
[33] = tested on: SK-MEL-2 melanoma
[34] = tested on: SF-539 CNS
[35] = tested on: SK-MEL-28 melanoma
[36] = tested on: MDA-MB-435
[37] = tested on: A549 NSCLC
[38] = tested on: UO-31 renal
[39] = tested on: NCI-H23 lung
[40] = tested on: K-562 leukemia
[41] = tested on: HCT-116 colon
[42] = tested on: SK-MEL-5 melanoma
[43] = tested on: HS 578T breast
[44] = tested on: EKVX NSCLC
[45] = tested on: HCT-15 colon
[46] = tested on: KM12 colon
[47] = tested on: OVCAR-3 ovarian
[48] = tested on: A498 renal
[49] = tested on: MDA-N
[50] = tested on: OVCAR-5 ovarian
[51] = tested on: NCI-H522 lung
[52] = tested on: DU-145 prostate
[53] = tested on: SNB-75 CNS
[54] = tested on: RXF 393 renal
[55] = tested on: CAKI-1 renal
[56] = tested on: RPMI-8226 leukemia
[57] = tested on: SF-295 CNS
[58] = tested on: CCRF-CEM leukemia
[59] = tested on: NCI-H460 lung

SMILES: Cc1nn(CN2CCN(C)CC2)c(=S)n1/N=C/c1ccc(-c2ccc(Cl)cc2Cl)o1
- TGI [1]: > 100 µM
- TGI [2]: > 100 µM
- TGI [3]: > 100 µM
- TGI [4]: > 100 µM
- TGI [5]: > 100 µM
- TGI [6]: > 100 µM
- TGI [7]: 98.2 µM
- TGI [8]: > 100 µM
- TGI [9]: > 100 µM
- TGI [10]: > 100 µM
- TGI [11]: 95.2 µM
- TGI [12]: > 100 µM
- TGI [13]: > 100 µM
- TGI [14]: > 100 µM
- TGI [15]: > 100 µM
- TGI [16]: > 100 µM
- TGI [17]: > 100 µM
- TGI [18]: > 100 µM
- TGI [19]: > 100 µM
- TGI [20]: > 100 µM
- TGI [21]: > 100 µM
- TGI [22]: > 100 µM
- TGI [23]: > 100 µM
- TGI [24]: > 100 µM
- TGI [25]: > 100 µM
- TGI [26]: > 100 µM
- TGI [27]: > 100 µM
- TGI [28]: > 100 µM
- TGI [29]: > 100 µM
- TGI [30]: > 100 µM
- TGI [31]: > 100 µM
- TGI [32]: > 100 µM
- TGI [33]: > 100 µM
- TGI [34]: > 100 µM
- TGI [35]: > 100 µM
- TGI [36]: > 100 µM
- TGI [37]: > 100 µM
- TGI [38]: > 100 µM
- TGI [39]: > 100 µM
- TGI [40]: > 100 µM
- TGI [41]: > 100 µM
- TGI [42]: > 100 µM
- TGI [43]: > 100 µM
- TGI [44]: 88.8 µM
- TGI [45]: > 100 µM
- TGI [46]: > 100 µM
- TGI [47]: > 100 µM
- TGI [48]: 56.8 µM
- TGI [49]: > 100 µM
- TGI [50]: > 100 µM
- TGI [51]: > 100 µM
- TGI [52]: > 100 µM

SMILES: O=[N+]([O-])c1ccc2c3c1[C@H]1O[C@H]1c1cccc(c1-3)[C@@H]1O[C@H]21
- TGI [1]: 5.65 µM
- GI50 [2]: 1.72 µM
- TGI [2]: 3.69 µM
- TGI [3]: 13.6 µM
- TGI [4]: > 100 µM
- TGI [5]: 1.28 µM
- GI50 [6]: 2.78 µM
- TGI [6]: > 100 µM
- TGI [7]: > 100 µM
- TGI [8]: 4.69 µM
- TGI [9]: > 30 µM
- TGI [10]: 2.75 µM
- TGI [11]: > 100 µM
- TGI [12]: 10.8 µM
- TGI [13]: 3.89 µM
- TGI [14]: 4.87 µM
- TGI [15]: > 20 µM
- TGI [16]: 8.85 µM
- TGI [17]: 3.24 µM
- TGI [18]: 4.38 µM
- TGI [19]: 3.87 µM
- TGI [20]: 3.56 µM
- TGI [21]: 3.98 µM
- TGI [23]: 4.64 µM
- TGI [24]: 11.6 µM
- TGI [53]: 4.1 µM
- TGI [25]: 6.18 µM
- TGI [26]: 5.17 µM
- TGI [27]: 6.57 µM
- TGI [28]: 4.46 µM
- TGI [54]: 3.38 µM
- TGI [29]: 5.03 µM
- TGI [30]: 3.75 µM
- TGI [32]: 3.69 µM
- TGI [33]: > 100 µM
- TGI [55]: 3.73 µM
- TGI [34]: 4.09 µM
- TGI [35]: 6.73 µM
- TGI [36]: 4.14 µM
- TGI [37]: 15.5 µM
- TGI [38]: 3.62 µM
- TGI [39]: 3.88 µM
- TGI [40]: > 100 µM
- TGI [41]: 3.59 µM
- TGI [42]: 7.82 µM
- TGI [43]: 7.06 µM
- TGI [44]: 4.08 µM
- TGI [56]: > 100 µM
- TGI [45]: 4.47 µM
- TGI [46]: 5.86 µM
- TGI [47]: 6.2 µM
- TGI [49]: 4.91 µM
- TGI [57]: 12.3 µM
- TGI [50]: 6.77 µM
- TGI [51]: 3.42 µM
- TGI [52]: 6.25 µM

SMILES: COC1OC(COC(=O)NCCCCC(=O)C(F)(F)C(F)(F)C(F)(F)C(F)(F)C(F)(F)C(F)(F)C(F)(F)F)C(O)C(O)C1O (configuration not stated)
- TGI [1]: 61.8 µM and > 100 µM
- TGI [2]: 45 µM and 39.7 µM
- TGI [3]: 34 µM and 34.1 µM
- TGI [4]: > 100 µM
- TGI [5]: 30.2 µM and 27.9 µM
- TGI [6]: 33.6 µM and 33.4 µM
- GI50 [7]: 12.5 µM and 4.13 µM
- TGI [7]: 31.7 µM and 23.1 µM
- TGI [8]: 40.2 µM and 43.5 µM
- TGI [9]: 30 µM and 32 µM
- TGI [10]: 31.9 µM and 31.7 µM
- TGI [12]: 32.1 µM and 30.1 µM
- TGI [13]: 31.4 µM and 31.9 µM
- TGI [14]: 36.2 µM and 37.7 µM
- TGI [15]: 25.9 µM and 26.5 µM
- GI50 [16]: 24.9 µM
- TGI [16]: > 100 µM
- TGI [18]: 30.8 µM and 37.1 µM
- TGI [19]: 42.3 µM and 40.2 µM
- GI50 [58]: 16.4 µM and 7.62 µM
- TGI [58]: 44 µM and 37.4 µM
- TGI [20]: 31.4 µM and 30.1 µM
- TGI [21]: 39.7 µM and 24.6 µM
- TGI [22]: 30.9 µM and 27.4 µM
- TGI [23]: 44.3 µM and 47.3 µM
- TGI [24]: 29.2 µM and 27.2 µM
- TGI [53]: 29.3 µM and 27.6 µM
- TGI [25]: 39.1 µM and 32.5 µM
- TGI [26]: 31.8 µM and 29.9 µM
- TGI [27]: 27.4 µM and 35 µM
- TGI [28]: 35.3 µM and 28.5 µM
- TGI [54]: 26.4 µM and 30.2 µM
- GI50 [29]: 14.2 µM and 2.27 µM
- TGI [29]: 28.6 µM and 15.6 µM
- TGI [30]: 29.7 µM and 29.4 µM
- TGI [31]: 36.5 µM and 37.5 µM
- TGI [32]: 26.6 µM and 27.5 µM
- TGI [33]: 40.1 µM and 40.3 µM
- TGI [55]: 32.9 µM and 30 µM
- TGI [34]: 29.5 µM and 34.2 µM
- TGI [35]: 31 µM and 30.5 µM
- TGI [36]: 32.2 µM and 31.7 µM
- TGI [37]: 36.1 µM and 31 µM
- TGI [38]: 30.5 µM and 30.8 µM
- TGI [39]: 40.4 µM and 34.1 µM
- TGI [40]: 36.8 µM and 37.5 µM
- TGI [41]: 39.4 µM and 31.9 µM
- TGI [42]: 25.8 µM and 24.3 µM
- TGI [43]: 43.8 µM and 33.7 µM
- TGI [59]: 36.3 µM and 49.5 µM
- TGI [56]: > 100 µM
- TGI [45]: 33.1 µM and 38.3 µM
- TGI [46]: 37.1 µM and 48.7 µM
- TGI [47]: 29.2 µM and 28.1 µM
- TGI [49]: 51.9 µM and 61.3 µM
- TGI [57]: 44.8 µM and 44.2 µM
- TGI [50]: 32.9 µM and 32.3 µM
- GI50 [52]: 34.8 µM and 4.86 µM
- TGI [52]: > 100 µM and 29.9 µM
